Tests used:
[1] = system: time-mated female New Zealand White rabbits; assay: Developmental toxicity in the rabbit; assay type: in vivo
Source text: The safety of a use of a steroid sulfatase inhibitor according to the invention, measured by no or minor effects induced on foetus development during gestation in pregnant rabbit can be investigated as follows.
The effects of a steroid sulfatase inhibitor according to the invention (Estradiol Sulfamate or E2MATE) on the embryonic and foetal development of the rabbit when administered during the period of organogenesis (Days 6 to 18 of gestation). Four groups each of between 20 to 25 time-mated female New Zealand White rabbits were dosed with 0 (Control), 5, 15 or 50 μg/kg/day from Day 6 to Day 18 of gestation. A further group of twenty females was administered with ethinylestradiol at 50 μg/kg/day and acted as a positive control. Clinical observations, bodyweight and food consumption were recorded and the progress and outcome of pregnancy was assessed on Day 28 of gestation. Foetal pathology to assess abnormalities and variations was carried out on all foetuses

[2] = Placental barrier crossing ability measurement (whole body autoradiography of 14C-labeled compound); assay type: in vivo, rat; details: for Passage of the placental barrier: compound and/or its main metabolite
Procedure: The ability of a steroid sulfatase inhibitor according to the invention to cross the placental barrier can be investigated as follows. This assay was performed with a steroid sulfatase inhibitor according to the invention (Estradiol Sulfamate or E2MATE) which is used for the treatment of symptoms related to estrogen deficiency in postmenopausal or hysterectomized women.
Six female albino rats received a single intravenous bolus dose of 0.47 mg ^14C-labeled Estradiol Sulfamate per kg. Six female albino, 3 pregnant albino and 4 female pigmented rats received 1 mg ^14C-labeled Estradiol Sulfamate per kg as an intragastic dose. […] Animals were deeply frozen in a mixture of hexane and dry ice and embedded into a block of carboxymethyl cellulose, which was frozen and stored at approximately −20° C. External standards were used for semi-quantitative evaluation of radioluminograms and were prepared by spiking an erythrocyte concentrate with different concentrations of ^14C-radioactivity. Pores were drilled into a separate block of carboxymethyl cellulose, filled with external standards and frozen at approximately −20° C. Whole body sagittal sections of 50 μm thickness were taken through each animal and the external standard block using a Leica CM 3600 cryomicrotome. After freeze drying of the sections in the cryostat for a minimum time of 48 hours, they were exposed to an Imaging Plate (IP) for a period of 4 to 24 hours and the IP was scanned using the bioimaging analyzer BAS 2000. For evaluation, the external standard samples were related to a colored scale using the software AIDA (Advanced Image Data Analysis, version 3.10, Raytest, Germany), each color representing a specific radioactive concentration (MBq). The different tissues were compared semi-quantitatively to the external standards and concentration ranges were determined.

[3] = system: time-mated female Sprague-Dawley rats; assay: Developmental toxicity in the rat; assay type: in vivo
Source text: The safety of a use of a steroid sulfatase inhibitor according to the invention, measured by no or minor effects induced on foetus development during gestation in pregnant rat can be investigated as follows.
The effects of a steroid sulfatase inhibitor according to the invention (Estradiol Sulfamate or E2MATE) on the embryonic and foetal development of the rat was investigated when administered during the period of organogenesis (Days 6 to 17 of gestation). Four groups each of 20 time-mated female Sprague-Dawley rats were dosed with 0 (Control), 7.5, 22 or 60 μg/kg/day of Estardiol sulfamate from Day 6 to Day 17 of gestation. A further group of twenty females was dosed with ethinylestradiol at 80 μg/kg/day and acted as a positive control.
Clinical observations, bodyweight and food consumption were recorded and the progress and outcome of pregnancy was assessed on Day 20 of gestation. Foetal pathology to assess abnormalities and variations was carried out on all foetuses.

[4] = dosed Day 6 to Day 18 of gestation
[5] = 1 h post-dose, 1 mg/kg i.g., pregnant albino rats, semi-quantitative
[6] = dosed Day 6 to Day 17 of gestation

Structure (SMILES)	No Observed Adverse Effect Level (NOAEL) for embryofoetal development [1, 4]	No Observed Adverse Effect Level for maternal toxicity during the period of organogenesis [1, 4]	Dosage-related maternal effects at higher doses ([1]; doses above 5 μg/kg/day (15 or 50 μg/kg/day))	Tolerance by the females compared with ethinylestradiol (positive control) ([1]; ethinylestradiol at 50 μg/kg/day)	Distribution of radiolabel in pregnant albino animals compared to female albino rats ([2]; 1 mg/kg 14C-labeled, intragastric, pregnant (18 day p.c.) albino rats)	14C-concentrations in pregnant animals versus non-pregnant animals ([2]; 1 h post-dose, 1 mg/kg i.g.)	14C-radiolabel concentration in foetal liver [2, 5]	14C-radiolabel concentration in foetal membranes [2, 5]	14C-radiolabel concentration in mammary gland [2, 5]	14C-radiolabel concentration in placenta [2, 5]	14C-radiolabel concentration in the foetus [2, 5]	14C-concentrations (foetus, foetal liver, placenta, mammary gland, foetal membranes) ([2]; 7 h and 1 day post dose, 1 mg/kg i.g., pregnant albino rats)	general radiolabel concentration in pregnant animals versus non-pregnant animals ([2]; after 7 h, 1 mg/kg i.g.)	Passage of the placental barrier ([2]; pregnant albino rats)	Effects in foetuses / teratogenic action ([3]; at about 22 μg/kg/day)	No Observed Adverse Effect Level (NOAEL) for foetal development [3, 6]	No Observed Effect Level (NOEL) for female toxicity [3, 6]	Observed female toxicity at the higher doses ([3]; doses above 7.5 μg/kg/day (22 or 60 μg/kg/day))
C[C@]12CC[C@@H]3c4ccc(OS(N)(=O)=O)cc4CC[C@H]3[C@@H]1CC[C@@H]2O [Estradiol Sulfamate]	about 15 μg/kg/day	about 5 μg/kg/day	limited to lower bodyweight gain and food consumption	generally better tolerated	similar	slightly higher	high range	medium	medium	high range	high range	between the higher low and the lower high range	lower	passed the placental barrier reversibly	some minor effects in foetuses but no teratogenic action	about 22 μg/kg/day	about 7.5 μg/kg/day	limited to reduced food consumption and an associated reduction in bodyweight gain during gestation
CC12CCC3c4ccc(OS(N)(=O)=O)cc4CCC3C1CCC2=O (stereo not shown) [Estrone Sulfamate]														passed the placental barrier reversibly				

Source: patent US20110118224A1, “USE OF STEROID SULFATASE INHIBITORS FOR THE TREATMENT OF PRETERM LABOR” (priority 2008, published 2011)
